The results in this text go back to patent US8268801B2 (priority 2007, dated 2012).

Each structure is given as a SMILES string.

This assay concerns T cell clone Z4B27. Nature of the assay: Antigen presentation assay: IFN-γ release by T cell clone Z4B27. The settings on record: CD1+ APC preincubated 2 h with sonicated antigen 1-10 μg/mL, 36 h, ELISA; FIG. 1; compared with unsulfated compound f and saturated comparative compound. It is filed as cell-based. The protocol:
The release of IFN-γ produced by T cell clone Z4B27 prepared in accordance with the method disclosed in WO 2004/092192 in response to stimulation by the compounds of the invention was measured.
CD1+APC were preincubated at 5×10^4 cells/well for 2 h at 37° C. with sonicated antigen (1-10 μg/mL) before addition of T cells (5×10^4/well in triplicate). After 36 h released TNF-α and IFN-γ were measured using sandwich ELISA kits (Instrumentation Laboratory). Data are expressed as mean ng/mL or pg/mL±SD of triplicates. All experiments were repeated at least 2 times.
(In general: An ELISA detects its analyte on a solid surface through an enzyme-linked reagent.)

As to `CCCCCCCCCCCCCCCCC(C)CC(C)CC(C)C=C(C)C(=O)OC1C(O)C(CO)OC(OC2OC(CO)C(O)C(O)C2OS(=O)(=O)O)C1OC(=O)CCCCCCCCCCCCCCC` [compound e, 2′-O-Sulfate-2-O-hexadecanoyl-3-O-[(4S,6S,8S)-2,4,6,8-tetramethyltetracos-2-enoyl]-α,α′-D-trehalose], the “IFN-γ produced by T cell clone Z4B27 in response to stimulation” value is on record as “better activity”.
